9 compounds from US6624196B2, “Benzene butyric acids and their derivatives as inhibitors of matrix metalloproteinases” (Warner-Lambert Company, priority 1999, dated 2003) can be followed below.

The target of series [1] is T1, MMP-2CD (gelatinase A catalytic domain) (Homo sapiens, UniProt P08253, DEL220-393).
T1 construct: Experiments were carried out with the catalytic domains of the proteinases
Kind of series: Thiopeptolide substrate assay, gelatinase A catalytic domain. It is filed as biochemical. Conditions: for IC50: thiopeptolide substrate, catalytic domain; for inhibition at 10 µM: 10 μM concentration of inhibitor (footnote a, Examples 8 through 25), read-out: % inhibition of the enzyme MMP-2CD. As to the method:
(§1) Experiments were carried out with the catalytic domains of the proteinases. […] IC50 values were determined using a thiopeptolide substrate, Ac-Pro-Leu-Gly-thioester-Leu-Leu-Gly-OEt (ye Q. -Z., Johnson L. L., Hupe D. J., and Baragi V., “Purification and Characterization of the Human Stromelysin Catalytic Domain Expressed in Escherichia coli,” Biochemistry, 1992;31:11231-11235; ye Q. -Z., Johnson L. L., yu A. E., and Hupe D., “Reconstructed 19 kDa catalytic domain of gelatinase A is an active proteinase,” Biochemistry, 1995;34:4702-4708.) MMP-13CD was expressed from a synthetic gene and purified from Escherichia coli cell culture according to a previously described method (ye Q. -Z., Johnson L. L., and Baragi V., “Gene synthesis and expression in E. coli for PUMP, a human matrix metalloproteinase,” Biochemical and Biophysical Research Communications, 1992;186:143-149.)

Series [2] addresses T2, MMP-3CD (stromelysin-1 catalytic domain) (Homo sapiens, UniProt P08254).
T2 construct: Experiments were carried out with the catalytic domains of the proteinases; made in house; host or cells: Escherichia coli
Kind of series: Thiopeptolide substrate assay, stromelysin-1 catalytic domain. It is filed as biochemical. Conditions: for IC50: thiopeptolide substrate, catalytic domain; for inhibition at 10 µM: 10 μM concentration of inhibitor (footnote a, Examples 8 through 25), read-out: % inhibition of the enzyme MMP-3CD. As to the method: as §1

Series [3] concerns the target T3, MMP-13CD (collagenase-3 catalytic domain) (Homo sapiens, UniProt P45452).
T3 construct: Experiments were carried out with the catalytic domains of the proteinases; made in house; host or cells: Escherichia coli
Briefly: Thiopeptolide substrate assay, collagenase-3 catalytic domain. It is filed as biochemical. Conditions: for IC50: thiopeptolide substrate, catalytic domain; for inhibition at 10 µM: 10 μM concentration of inhibitor (footnote a, Examples 8 through 25), read-out: % inhibition of the enzyme MMP-13CD. As to the method:
as §1

As usually defined, the IC50 is the point on the concentration scale where inhibition reaches its midpoint. Read a low IC50 as higher potency. One may read the melting point as the temperature, or range, at which the solid turns liquid. As usually defined, the inhibition is the percentage by which the read-out fell short of the control.

T1 sequence (P08253 with tags, fused parts or gaps DEL220-393): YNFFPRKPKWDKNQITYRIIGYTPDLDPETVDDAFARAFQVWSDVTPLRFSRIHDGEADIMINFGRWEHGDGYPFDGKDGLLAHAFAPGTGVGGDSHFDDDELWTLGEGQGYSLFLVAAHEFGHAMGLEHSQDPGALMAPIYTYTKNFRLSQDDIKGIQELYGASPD
T2 sequence (P08254 100-272 limits assumed): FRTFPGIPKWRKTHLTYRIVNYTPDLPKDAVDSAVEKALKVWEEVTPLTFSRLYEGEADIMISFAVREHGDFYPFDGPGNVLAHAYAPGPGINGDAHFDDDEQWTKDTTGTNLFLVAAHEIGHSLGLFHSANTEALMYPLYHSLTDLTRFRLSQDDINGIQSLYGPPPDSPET

Take `CCCCC(=O)Nc1ccc(C(=O)CCC(=O)O)cc1` [Example 3, 4—oxo-4-(4-pentanoylamino-phenyl)-butyric acid]: the melting point was 153 to 155 °C. The compound further gave an IC50 in series [1] of 9.5 µM. Moreover, in series [2], half-maximal inhibition (IC50) required 8.15 µM.

In turn, `O=C(O)CCC(=O)c1ccc(NC(=O)c2ccccc2F)cc1` [Example 5, 4-[4-(2-Fluoro-benzoylamino)-phenyl]-4-oxo-butyric acid] came in with a melting point of 191 to 193 °C. This compound also gave an IC50 in series [1] of 1.9 µM. In series [2], the IC50 came out at 9.8 µM.

With `O=C(O)CCC(=O)c1ccc(NC(=O)c2ccc(F)cc2)cc1` [Example 6, 4-[4-(4-Fluoro-benzoylamino)-phenyl]-4-oxo-butyric acid], the melting point lay within 253 to 255 °C. Moreover, it took 1.7 µM to reach half-maximal inhibition in series [1] (IC50). In series [2], this compound displayed an IC50 of 2.8 µM. The same compound had an IC50 in series [3] of 85 µM.

With `COc1ccccc1C(=O)Nc1ccc(C(=O)CCC(=O)O)cc1` [Example 25, 4-[4-(2-Methoxy-benzoylamino)-phenyl]-4-oxo-butyric acid], the inhibition at 10 µM in series [1] is 18%; in series [2] it was 13%; in series [3], 0%.

`O=C(O)CCC(=O)c1ccc(NC(=O)c2cccc([N+](=O)[O-])c2)cc1` [Example 21, 4-[4-(3-Nitro-benzoylamino)-phenyl]-4-oxo-butyric acid]: the inhibition at 10 µM in series [1] is 78%; in series [2], 23%; in series [3], 8%.

Turning to `O=C(O)CCC(=O)c1ccc(NC(=O)c2cccc(F)c2)cc1` [Example 4, 4-[4-(3-Fluoro-benzoylamino)-phenyl]-4-oxo-butyric acid], the melting point is 239 to 241 °C. Moreover, in series [1], the midpoint of inhibition, the IC50, lay at 1.9 µM. In series [2], this compound had an IC50 of 6.2 µM.

On to `COc1ccc(C(=O)Nc2ccc(C(=O)CCC(=O)O)cc2)cc1` [Example 27, 4-[4-(4-Methoxy-benzoylamino)-phenyl]-4-oxo-butyric acid], for which the IC50 in series [1] worked out at 0.07 µM; in series [2], 0.34 µM; in series [3] it was 9.8 µM.

In the case of `COc1cc(OC)cc(C(=O)Nc2ccc(C(=O)CCC(=O)O)cc2)c1` [Example 24, 4-[4-(3,5-Dimethoxy-benzoylamino)-phenyl]-4-oxo-butyric acid], the results for the inhibition at 10 µM in series [1], in series [2] and in series [3] were 15%, 4% and 0%, respectively.

In the case of `O=C(O)CCC(=O)c1ccc(NC(=O)C2CCCCC2)cc1` [Example 7, 4-[4-(Cyclohexane-carbonyllamino)-phenyl]-4-oxo-butyric acid], the melting point is 195 to 198 °C. Besides, 20 µM corresponded to half-maximal inhibition in series [2] (IC50).
